Measurements: patent US9458110B2, “Phenylpyrazole derivatives as potent ROCK1 and ROCK2 inhibitors” (BRISTOL-MYERS SQUIBB COMPANY, priority 2013, dated 2016)

How the values were obtained:
ROCK2 = ROCK2 (Homo sapiens (Human), UniProt O75116); assay: ROCK assay (Caliper LABCHIP peptide phosphorylation), ROCK2; format: biochemical; conditions: 5 μM ATP, 1.5 μM peptide substrate;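 note: reaction stopped with EDTA, then phosphorylated and unphosphorylated peptide resolved by microfluidic electrophoresis, kinase inhibition computed at each compound concentration in dose-response series, DMSO under 2%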
Chain of ROCK2 (O75116 whole entry, species assumed): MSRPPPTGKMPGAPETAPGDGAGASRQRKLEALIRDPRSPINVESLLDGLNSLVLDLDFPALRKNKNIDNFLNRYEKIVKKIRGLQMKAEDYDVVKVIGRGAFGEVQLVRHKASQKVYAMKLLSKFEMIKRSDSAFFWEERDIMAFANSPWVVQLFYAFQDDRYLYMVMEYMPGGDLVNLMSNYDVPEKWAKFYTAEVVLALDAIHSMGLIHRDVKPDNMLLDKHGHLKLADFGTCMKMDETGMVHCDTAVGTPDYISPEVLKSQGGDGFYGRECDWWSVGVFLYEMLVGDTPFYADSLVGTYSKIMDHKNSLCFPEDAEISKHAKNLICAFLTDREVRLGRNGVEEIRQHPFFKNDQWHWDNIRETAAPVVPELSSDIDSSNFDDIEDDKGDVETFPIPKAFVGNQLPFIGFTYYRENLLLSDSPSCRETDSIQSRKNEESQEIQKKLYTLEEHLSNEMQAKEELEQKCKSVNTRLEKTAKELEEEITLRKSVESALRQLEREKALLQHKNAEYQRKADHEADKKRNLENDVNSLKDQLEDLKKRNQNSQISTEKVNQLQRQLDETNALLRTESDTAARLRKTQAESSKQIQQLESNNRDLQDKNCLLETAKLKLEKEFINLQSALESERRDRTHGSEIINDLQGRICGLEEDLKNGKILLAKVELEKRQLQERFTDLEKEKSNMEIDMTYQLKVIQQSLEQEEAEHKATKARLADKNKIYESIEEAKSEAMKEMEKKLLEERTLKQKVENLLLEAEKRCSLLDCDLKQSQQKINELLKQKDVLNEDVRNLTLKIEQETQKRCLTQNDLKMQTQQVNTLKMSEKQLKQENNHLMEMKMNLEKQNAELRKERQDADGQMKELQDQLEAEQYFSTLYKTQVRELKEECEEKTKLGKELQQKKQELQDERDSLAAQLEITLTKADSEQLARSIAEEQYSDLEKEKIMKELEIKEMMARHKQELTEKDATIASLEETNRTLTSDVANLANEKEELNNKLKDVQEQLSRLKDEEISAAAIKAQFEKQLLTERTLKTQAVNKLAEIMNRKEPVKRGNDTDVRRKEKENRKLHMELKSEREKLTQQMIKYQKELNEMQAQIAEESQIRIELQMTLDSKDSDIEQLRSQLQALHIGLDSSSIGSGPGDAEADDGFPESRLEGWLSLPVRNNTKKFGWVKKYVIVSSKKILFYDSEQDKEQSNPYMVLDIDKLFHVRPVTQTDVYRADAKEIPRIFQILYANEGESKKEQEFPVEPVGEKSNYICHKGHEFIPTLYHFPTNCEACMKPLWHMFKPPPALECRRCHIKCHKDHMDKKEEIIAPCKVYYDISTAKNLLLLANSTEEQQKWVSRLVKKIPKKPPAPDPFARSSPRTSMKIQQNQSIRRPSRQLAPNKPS

ROCK1 = ROCK1 (Homo sapiens (Human), UniProt Q13464); assay: ROCK assay (Caliper LABCHIP peptide phosphorylation), ROCK1; format: biochemical; conditions: 5 μM ATP, 1.5 μM peptide substrate;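 note: Read-out is separation of phosphorylated from unphosphorylated peptide, with kinase activity inhibition computed at every concentration of a dose-response series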
Chain of ROCK1 (Q13464 whole entry, species assumed): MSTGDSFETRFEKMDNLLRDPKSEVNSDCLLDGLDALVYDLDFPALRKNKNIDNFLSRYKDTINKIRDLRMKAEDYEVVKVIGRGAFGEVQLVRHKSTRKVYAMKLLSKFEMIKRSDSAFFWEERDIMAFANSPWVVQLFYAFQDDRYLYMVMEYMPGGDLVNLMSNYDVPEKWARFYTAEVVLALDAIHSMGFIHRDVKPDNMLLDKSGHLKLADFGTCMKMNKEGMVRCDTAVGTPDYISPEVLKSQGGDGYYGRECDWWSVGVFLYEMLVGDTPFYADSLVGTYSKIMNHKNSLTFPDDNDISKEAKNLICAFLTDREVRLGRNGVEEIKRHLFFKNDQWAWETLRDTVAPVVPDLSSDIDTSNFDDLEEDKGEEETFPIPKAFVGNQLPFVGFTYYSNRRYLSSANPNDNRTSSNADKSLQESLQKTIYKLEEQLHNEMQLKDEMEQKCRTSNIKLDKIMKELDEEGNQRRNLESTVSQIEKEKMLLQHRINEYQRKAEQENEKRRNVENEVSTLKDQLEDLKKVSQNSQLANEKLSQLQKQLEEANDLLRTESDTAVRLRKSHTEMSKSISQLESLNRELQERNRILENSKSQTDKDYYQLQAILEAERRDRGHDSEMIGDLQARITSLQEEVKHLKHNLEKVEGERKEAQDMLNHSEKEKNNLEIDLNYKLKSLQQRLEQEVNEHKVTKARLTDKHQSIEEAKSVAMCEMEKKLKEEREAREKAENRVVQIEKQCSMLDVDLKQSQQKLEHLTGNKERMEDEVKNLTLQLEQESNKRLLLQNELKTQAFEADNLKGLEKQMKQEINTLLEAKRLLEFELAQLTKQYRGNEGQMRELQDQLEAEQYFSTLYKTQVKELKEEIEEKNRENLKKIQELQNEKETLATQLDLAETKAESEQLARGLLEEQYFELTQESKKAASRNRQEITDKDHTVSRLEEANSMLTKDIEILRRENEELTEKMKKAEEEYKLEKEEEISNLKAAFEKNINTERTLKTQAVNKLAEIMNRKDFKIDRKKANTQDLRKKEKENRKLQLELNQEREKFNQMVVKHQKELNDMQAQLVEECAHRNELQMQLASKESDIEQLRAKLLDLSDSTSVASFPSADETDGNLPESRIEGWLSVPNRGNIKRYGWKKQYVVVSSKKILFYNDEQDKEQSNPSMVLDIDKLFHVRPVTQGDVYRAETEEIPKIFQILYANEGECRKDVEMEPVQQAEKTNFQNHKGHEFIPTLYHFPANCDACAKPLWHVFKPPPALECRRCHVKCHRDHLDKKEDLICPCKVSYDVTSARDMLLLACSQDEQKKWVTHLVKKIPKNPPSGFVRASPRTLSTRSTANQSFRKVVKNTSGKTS

Compound | IC50 (ROCK2) [nM] | IC50 (ROCK1) [nM]
CC(O)c1cc(C(=O)NCc2c(F)cccc2Cl)ccc1-c1cn[nH]c1 (stereo not drawn) [Example 290, N-[(2-chloro-6-fluorophenyl)methyl]-3-(1-hydroxyethyl)-4-(1H-pyrazol-4-yl)benzamide] | 1760 | 1950
CC(=O)c1cc(C(=O)N[C@H](C)c2ccccc2)ccc1-c1cn[nH]c1 [Example 294, (R)-3-Acetyl-N-(1-phenylethyl)-4-(1H-pyrazol-4-yl)benzamide] | 613 | > 2000
COc1cc(C(=O)N[C@@H](C)c2ccccc2Cl)ccc1-c1cn[nH]c1 [Example 44, (S)-N-(1-(2-chlorophenyl)ethyl)-3-methoxy-4-(1H-pyrazol-4-yl)benzamide] | 52.5 | 96.1
C[C@@H](NC(=O)c1cc(F)c(-c2cn[nH]c2)cc1F)c1ccccc1 [Example 186, 2,5-difluoro-N-[(1R)-1-phenylethyl]-4-(1H-pyrazol-4-yl)benzamide] | 190 | 472
COc1cc(C(=O)NCC(c2ccccc2)N2CCCC2)ccc1-c1cn[nH]c1 (stereo not drawn) [Example 125, 3-methoxy-N-[2-phenyl-2-(pyrrolidin-1-yl)ethyl]-4-(1H-pyrazol-4-yl)benzamide] | 84.9 | 156
COc1cc(C(=O)NCc2ccc(Cl)c(C(F)(F)F)c2)ccc1-c1cn[nH]c1 [Example 39, N-(4-chloro-3-(trifluoromethyl)benzyl)-3-methoxy-4-(1H-pyrazol-4-yl)benzamide] | 33.3 | 107
COc1cc(-c2cn[nH]c2)ccc1C(=O)NC(C)c1c(F)cccc1F (stereo not drawn) [Example 227, N-[1-(2,6-difluorophenyl)ethyl]-2-methoxy-4-(1H-pyrazol-4-yl)benzamide] | 1200 | > 2000
COc1cc(C(=O)NC2(c3ccccc3)CCC2)ccc1-c1cn[nH]c1 [Example 222, 3-methoxy-N-(1-phenyl-cyclobutyl)-4-(1H-pyrazol-4-yl)benzamide] | 26 | 146
Cc1n[nH]cc1-c1cc(OCCN(C)C)c(C(=O)N[C@H](C)c2ccccc2)cc1F [Example 309, 2-[2-(dimethylamino)ethoxy]-5-fluoro-4-(3-methyl-1H-pyrazol-4-yl)-N-[(1R)-1-phenylethyl]benzamide] | 771 | > 2000
COc1cc(C(=O)NC(C)(C)c2ccccc2)ccc1-c1cn[nH]c1 [Example 30, 3-methoxy-N-(2-phenylpropan-2-yl)-4-(1H-pyrazol-4-yl)benzamide] | 129 | 214
COc1cc(C(=O)N(C)CCc2ccccc2)ccc1-c1cn[nH]c1 [Example 70, 3-methoxy-N-methyl-N-phenethyl-4-(1H-pyrazol-4-yl)benzamide] | 164 | 379
N#Cc1cc(C(=O)N[C@H](CO)c2c(F)cccc2F)ccc1-c1cn[nH]c1 [Example 198, 3-cyano-N-[(1S)-1-(2,6-difluorophenyl)-2-hydroxyethyl]-4-(1H-pyrazol-4-yl)benzamide] | 140 | 397
Cc1cc(C(=O)NC(C)c2cccc(O)n2)ccc1-c1cn[nH]c1 (stereo not drawn) [Example 168, N-[1-(6-hydroxypyridin-2-yl)ethyl]-3-methyl-4-(1H-pyrazol-4-yl)benzamide] | 46.7 | 130
CNc1cc(C(=O)N[C@H](C)c2ccc(F)cc2)ccc1-c1cn[nH]c1 [Example 297, (R)-N-(1-(4-Fluorophenyl)ethyl)-3-(methylamino)-4-(1H-pyrazol-4-yl)benzamide] | 518 | 1760
CCOc1cc(C(=O)N[C@H](C)c2ccc(F)cc2)ccc1-c1cn[nH]c1 [Example 191, 3-ethoxy-N-[(1R)-1-(4-fluorophenyl)ethyl]-4-(1H-pyrazol-4-yl)benzamide] | 74.6 | 205
COc1cccc(CNC(=O)c2ccc(-c3c[nH]nc3C)c(OC)c2)c1 [Example 56, 3-Methoxy-N-(3-methoxybenzyl)-4-(3-methyl-1H-pyrazol-4-yl)benzamide] | 204 | 461
Cc1cc(C(=O)N[C@H](CN(C)C)c2ccccc2)ccc1-c1cn[nH]c1 [Example 263, N-[(1S)-2-(Dimethylamino)-1-phenylethyl]-3-methyl-4-(1H-pyrazol-4-yl)benzamide] | 3.94 | 6.45
N#Cc1cc(C(=O)N[C@H](CO)c2ccccc2)ccc1-c1cn[nH]c1 [Example 194, 3-cyano-N-[(1S)-2-hydroxy-1-phenylethyl]-4-(1H-pyrazol-4-yl)benzamide] | 152 | 510
Nc1cc(-c2cn[nH]c2)ccc1C(=O)NCCCc1ccccc1 [Example 220, 2-amino-N-(3-phenylpropyl)-4-(1H-pyrazol-4-yl)benzamide] | 201 | 321

Continued by falling IC50 (ROCK2), values first:

IC50 (ROCK2) [nM] | IC50 (ROCK1) [nM] | Compound
17.9 | 55.2 | COc1cccc(C2(NC(=O)c3ccc(-c4cn[nH]c4)c(OC)c3)CC2)c1 [Example 116, 3-methoxy-N-[1-(3-methoxyphenyl)cyclopropyl]-4-(1H-pyrazol-4-yl)benzamide]
16.7 | 64 | COc1cc(C(=O)NCc2ccc(F)c(OC)c2F)ccc1-c1cn[nH]c1 [Example 50, N-(2,4-difluoro-3-methoxybenzyl)-3-methoxy-4-(1H-pyrazol-4-yl)benzamide]
16.2 | 98.2 | CC(O)c1cc(C(=O)N[C@H](C)c2c(F)cccc2F)ccc1-c1cn[nH]c1 (stereo partly drawn) [Example 293, N-[(1R)-1-(2,6-difluorophenyl)ethyl]-3-(1-hydroxyethyl)-4-(1H-pyrazol-4-yl)benzamide]
16 | 82.7 | CCOc1cc(C(=O)N[C@H](CO)c2c(F)cccc2F)ccc1-c1cn[nH]c1 [Example 195, N-[(1S)-1-(2,6-difluorophenyl)-2-hydroxyethyl]-3-ethoxy-4-(1H-pyrazol-4-yl)benzamide]
14.7 | 59.6 | COc1cc(-c2cn[nH]c2)ccc1C(=O)NC(C)c1c(F)cccc1Cl (stereo not drawn) [Example 223, N-[1-(2-chloro-6-fluorophenyl)ethyl]-2-methoxy-4-(1H-pyrazol-4-yl)benzamide]
13.8 | 63.7 | O=C(N[C@H](CO)c1c(F)cccc1F)c1ccc(-c2cn[nH]c2)c(OC(F)F)c1 [Example 196, 3-(difluoro-methoxy)-N-[(1S)-1-(2,6-difluorophenyl)-2-hydroxyethyl]-4-(1H-pyrazol-4-yl)benzamide]
10.5 | 17.5 | C=C[C@@H](NC(=O)c1ccc(-c2cn[nH]c2)c(OC)c1)c1c(F)cccc1F [Example 170, N-[(1R)-1-(2,6-difluorophenyl)prop-2-en-1-yl]-3-methoxy-4-(1H-pyrazol-4-yl)benzamide]
7.99 | 41.8 | COc1cc(C(=O)NCc2cccc3[nH]ncc23)ccc1-c1cn[nH]c1 [Example 86, N-(1H-indazol-4-ylmethyl)-3-methoxy-4-(1H-pyrazol-4-yl)benzamide]
7.75 | 1.53 | COc1cc(C(=O)NC(CCN(C)C)c2ccccc2)ccc1-c1cn[nH]c1 (stereo not drawn) [Example 179, N-[3-(dimethylamino)-1-phenylpropyl]-3-methoxy-4-(1H-pyrazol-4-yl)benzamide]
6.94 | 17.1 | O=C(N[C@H](CO)c1ccccc1)c1ccc(-c2cn[nH]c2)c(OC(F)F)c1 [Example 160, 3-(difluoro-methoxy)-N-[(1S)-2-hydroxy-1-phenylethyl]-4-(1H-pyrazol-4-yl)benzamide]
4.53 | 4.62 | COc1cc(C(=O)N[C@H](CNC2CC2)c2c(F)cccc2F)ccc1-c1cn[nH]c1 [Example 266, N-[(1S)-2-(Cyclopropylamino)-1-(2,6-difluorophenyl)ethyl]-3-methoxy-4-(1H-pyrazol-4-yl)benzamide]
2.89 | 11.3 | COc1cc(C(=O)N[C@H](CNS(=O)(=O)C2CC2)c2ccccc2)ccc1-c1cn[nH]c1 [Example 261, N-[(1S)-2-cyclopropane-sulfonamido-1-phenylethyl]-3-methoxy-4-(1H-pyrazol-4-yl)benzamide]
2.72 | 23.9 | COc1cc(C(=O)N[C@H](CO)[C@H](O)c2ccccc2)ccc1-c1cn[nH]c1 [Example 112, N-[(1R,2R)-1,3-dihydroxy-1-phenylpropan-2-yl]-3-methoxy-4-(1H-pyrazol-4-yl)benzamide]
2.54 | 3.37 | COc1cc(C(=O)NCc2ccc(F)cc2Cl)ccc1-c1cn[nH]c1 [Example 41, N-(2-chloro-4-fluorobenzyl)-3-methoxy-4-(1H-pyrazol-4-yl)benzamide]
2.17 | 7.22 | COc1cc(C(=O)NC(CO)c2ccccc2F)ccc1-c1cn[nH]c1 (stereo not drawn) [Example 166, N-[1-(2-fluorophenyl)-2-hydroxyethyl]-3-methoxy-4-(1H-pyrazol-4-yl)benzamide]
1.6 | 21.1 | CCOc1cc(-c2cn[nH]c2)ccc1C(=O)N[C@H](C)c1cccc(OC)c1 [Example 313, 2-ethoxy-N-[(1R)-1-(3-methoxyphenyl)ethyl]-4-(1H-pyrazol-4-yl)benzamide]
1.09 | 7.59 | COc1cc(-c2cn[nH]c2)ccc1C(=O)N[C@@H](c1ccccc1)[C@H](O)CO [Example 225, N-[(1S,2S)-2,3-dihydroxy-1-phenylpropyl]-2-methoxy-4-(1H-pyrazol-4-yl)benzamide]
0.65 | 2.15 | COc1cccc([C@@H](C)NC(=O)c2ccc(-c3c[nH]nc3C)cc2OC)c1 [Example 305, 4-(3-Methyl-1H-pyrazol-4-yl)-2-methoxy-N-[(1R)-1-(3-methoxyphenyl)ethyl]benzamide]
0.4 | 2.39 | CCNC(=O)c1cccc(CNC(=O)c2ccc(-c3cn[nH]c3)c(OC)c2)c1 [Example 237, N-{[3-(ethylcarbamoyl)phenyl]methyl}-3-methoxy-4-(1H-pyrazol-4-yl)benzamide]
0.37 | 1.79 | COc1cc(C(=O)NCc2cccc(C(=O)NCC3CC3)c2)ccc1-c1cn[nH]c1 [Example 236, N-({3-[(cyclopropyl-methyl)carbamoyl]phenyl}methyl)-3-methoxy-4-(1H-pyrazol-4-yl)benzamide]
